Assay results taken from ChEMBL document CHEMBL3600296, “Synthesis and evaluation of pyrrolotriazine based molecules as PI3 kinase inhibitors” (Bioorg Med Chem Lett, 2015).

Experiments:
Settings in all cases: 2 h
[1] = Metabolic stability in mouse liver microsomes at 10 uM up to 120 mins by HPLC analysis; type: ADME
Liver microsome [2] = assay: Metabolic stability in dog liver microsomes at 10 uM up to 120 mins by HPLC analysis; type: ADME, Canis lupus familiaris
Liver microsome [3] = assay: Metabolic stability in human liver microsomes at 10 uM up to 120 mins by HPLC analysis; type: ADME

Measured: Stability

Nc1ncc(-c2nc(N3CCOCC3)c3cccn3n2)cn1
Stable: all assays above

c1cc(-c2nc(N3CCOCC3)c3cccn3n2)c2cn[nH]c2c1
Stable: all assays above

COCc1ccc2c(N3CCOCC3)nc(-c3cnc(N)nc3)nn12
Stable: all assays above
